Consider one compound from patent publication US20070054834A1, “Quaternary ammonium halides for treatment of infectious conditions” (NanoBio Corporation, priority 2005, published 2007).

The assay deals with S. aureus ATCC 6538. Briefly: Microbicidal effect of CPC on S. aureus cultures (log reduction in count). The format is cell-based, Staphylococcus aureus. The following applies: incubated 10 minutes at 37° C. On the procedure: The microbicidal effect of cetyl pyridinium chloride (CPC) was tested using a strain of Staphylococcus aureus. Specifically, S. aureus ATCC 6538 cultures were placed in three different test tubes. Different concentrations (0.1%, 0.01% or 0.001%) of CPC were added to each of the test tubes. The mixture of CPC and S. aureus was incubated for 10 minutes on a tube rotator at 37° C. The results are shown below in Table 1 as the log reduction in S. aureus count.

In the case of `CCCCCCCCCCCCCCCC[n+]1ccccc1` [CPC, cetyl pyridinium chloride], the “Log reduction in S. aureus count” value runs as follows: (CPC concentration 0.001%) 3.4; (CPC concentration 0.01%) 5.3; (CPC concentration 0.1%) 5.3.
